From patent publication US20230357099A1, “PYRAZOLO [3,4-B] PYRIDINE-4-CARBOXAMIDE NITRIFICATION INHIBITOR” (EUROCHEM ANTWERPTEN, priority 2020, published 2023)

Legend:
[1] = system: Nitrososphaera viennensis; assay: Nitrification inhibition assay on Nitrososphaera viennensis (nitrite, Griess); format: cell-based, Nitrososphaera viennensis EN76T; conditions: Nitrososphaera viennensis; 2.5 µM compound; structural variants outside formula (I); read-out: Relative nitrification (%) by Nitrososphaera viennensis treated with 2.5 µM compound
Method: Nitrite (NO2—) was measured using the Griess reagent (Product number: G4410, Griess reagent (modified), Sigma-Aldrich). Equal volumes of the sample or a diluted sample and the Griess reagent were mixed a transparent flat bottom multi-well plate and incubated in the dark at room temperature for 10 minutes. Absorbance values at 540 nm were measured spectrophotometrically (EnVision, Perkin Elmer®) and used to calculate the [NO2—] by use of a standard curve.
A liquid culture sample of Nitrososphaera viennensis EN76T was kindly supplied by prof. dr. Christa Schleper (University of Vienna). Cells were grown in fresh water medium (FWM) as described earlier by Tourna et al. (2011). All necessary materials were rinsed with 1 % HCl and washed at least 3 times with MilliQ water. FWM (pH 7.5 (KOH)) contained 17 mM NaCl, 3 mM MgCl2 × 2 H2O, 680 µM CaCl2 × 2 H2O, 1.47 mM KH2PO4 and 6.71 mM KCI. After autoclaving, successively 1 mL non-chelated trace element mixture (101 mM HCl, 488 µM H3BO3, 508 µM MnCl2 × 4 H2O, 803 µM CoCl2 × 6 H2O, 101 µM NiCl2 × 6 H2O, 12 µM CuCl2 × 2 H2O, 503 µM ZnSO4 × 7 H2O and 150 µM Na2MoO4 × 2 H2O), 1 mL Fe-NaEDTA (7.5 mM), 1 mL vitamin solution (20 mg/L biotin, 20 mg/L folic acid, 100 mg/L pyridoxine-HCl, 50 mg/L thiamine-HCl, 50 mg/L riboflavin, 50 mg/L nicotinic acid, 50 mg/L DL-pantothenic acid, 50 mg/L P-aminobenzoic acid, 2 g/L choline chloride and 10 mg/L vitamin B12), 2 mL NaHCO3 (1 M), 2 mL kanamycin (100 mg/mL), 2 mL carbenicillin (100 mg/mL), 3 mL NH4Cl (1 M), 10 mL HEPES buffer (1 M, pH 7.6) and 1 mL Na-pyruvate (0.1 M) were added aseptically. All stock-solutions were filter-sterilized, except the autoclaved non-chelated trace element mixture. Cultures were incubated aerobically at 42° C. without shaking in sterile 250-mL Erlenmeyer flasks or 30-mL cultivation tubes (Product number: 216-1290, Quickstart universal containers STERILIN®, VWR) filled with either 100 or 20 mL FWM and sealed with tape (Micropore™ Surgical Tape 1530-1, 3M™). Late-log phase cultures ([NO2-] ≥ 1 mM) were subcultivated by dilution (1:400) in fresh FWM.
7-day old 100 mL cultures grown in 250-mL Erlenmeyer flasks with a [NO2-] ≥ 1 mM were 5 times overconcentrated in fresh FWM by centrifugation (4000 rpm, 15 min, 5° C.) in 50 mL centrifuge tubes (Cat. No. 430829, CentriStar™ Conical Centrifuge Tubes, Corning®). Per batch, all the cultures were pooled in one sterile Schott bottle. Subsequently, 200 µl/well was dispensed at low pipetting speed in transparent flat bottom 96-well plates (Cat. No. 353072, Falcon® 96 Well Clear Microplate, Corning®) using 150 µl wide-bore tips (two steps of 100 µl) on a Tecan robot (Freedom EVO®, Tecan). 0.5 µl of 99.99 % DMSO (negative control - final concentration 0.25%) and 0.5 µl of 0.04 M PTIO (2-phenyl-4,4,5,5-tetramethylimidazoline-1-oxyl 3-oxide, positive control - final concentration 100 µM) were added manually to the first and last column respectively. Finally, 0.5 µl of candidate nitrification inhibitors (1 mM stock solutions in 99.99% DMSO - final concentration 2.5 µM) were added to the central wells using a pin tool on a Tecan robot (Freedom EVO®, Tecan). In between additions, the pins were washed in sequence with 99.5% DMSO, MilliQ water and 100% ethanol and air-dried. All plates were sealed with tape (Micropore™ Surgical Tape 1530-1, 3M™), stacked per 4 on top of a 96-well plate filled with 100 µl MilliQ per well and covered with aluminum foil. Position effects of the stacks within the incubator were considered. Plates were incubated at 42° C. without shaking. 24 h later, NO2— was measured spectrophotometrically at 540 nm (EnVision, Perkin Elmer®). […]

[2] = system: ABIL (ammonia-binding liquid inoculum), nitrifying microbial enrichment containing both AOA and AOB; assay: Nitrification inhibition assay on ABIL (ammonium consumption); format: cell-based; conditions: 10 µM compound; structural variants outside formula (I); read-out: Relative nitrification (%) by ABIL treated with 10 µM compound

Compound	activity at 2.5 µM [1]	activity at 10 µM [2]
CC(C)n1ncc2cc(NC(=O)N3CCN(S(=O)(=O)N4CCCCCC4)CC3)cnc21 [Example 83]	100%	100%
CC(C)n1ncc2cc(C(=O)Nc3ccnn3Cc3ccc(Cl)cc3Cl)cnc21 [Example 84]	100%	100%
CC(C)n1ncc2cc(C(=O)N(C)Cc3nc4ccccc4s3)cnc21 [Example 85]	100%	100%
Cc1cc(C)nc(-n2nc(C)c3c(C(F)(F)F)cc(-c4cccnc4)nc32)n1 [Example 86]	94%	100%
CC(=O)c1ccc(OCC(=O)Nc2cnc3c(cnn3C(C)C)c2)cc1 [Example 87]	93%	100%
CC(C)n1ncc2cc(NC(=O)CN(C)S(=O)(=O)c3cccs3)cnc21 [Example 88]	94%	100%
C=CCNC(=O)c1cnc2c(cnn2C(C)C)c1 [Example 89]	100%	100%
Cc1nc2c(cnn2C(C)C)cc1C(=O)NC(C)C1CCCO1 (stereo not drawn) [Example 90]	93%	100%
Cc1nc2c(cnn2C(C)C)cc1C(=O)N1CCCN(C)c2nc3ccccc3nc21 [Example 91]	100%	100%
CCN(Cc1nc2ccccc2c(=O)[nH]1)C(=O)CCc1c(C)nc2c(cnn2C(C)C)c1C [Example 92]	100%	100%
COc1ccccc1CN(C)C(=O)c1cc2cnn(C(C)C)c2nc1C [Example 93]	100%	100%
CC(C)n1ncc2cc(CNc3ccc4[nH]ncc4c3)cnc21 [Example 94]	100%	92%
Cc1sc2nc(CN3CCCC3)nc(Nc3ccc4cn[nH]c4c3)c2c1C [Example 95]	96%	97%
N#Cc1nn(CN2CCSCC2)c2ccc(Cl)cc12 [Example 96]	96%	85%
CCCCc1nnc(NC(=O)c2n[nH]c3ccccc23)s1 [Example 97]	100%	86%
O=C(NCCc1ccccc1)c1n[nH]c2ccccc12 [Example 98]	100%	89%
Clc1ccc2c(Nc3ccc4[nH]ncc4c3)ncnc2c1 [Example 99]	100%	90%
COC(=O)c1cc(CNC(=O)c2n[nH]c3ccccc23)ccc1OC [Example 100]	96%	90%
COC(=O)c1n[nH]c2ccc(NS(=O)(=O)c3ccc(Cl)c(Cl)c3)cc12 [Example 101]	94%	90%
O=S(=O)(CCC1CC1)Nc1n[nH]c2cccc(F)c12 [Example 102]	100%	90%
CCC(CC)c1nnc(NC(=O)c2n[nH]c3ccccc23)s1 [Example 103]	100%	91%

Compound	activity at 2.5 µM [1]	activity at 10 µM [2]
Cc1ccc2[nH]nc(C(=O)N3CCS(=O)(=O)C(C)(C)C3)c2c1 [Example 104]	100%	93%
c1ccc(N2CCOCC2)c(CNc2ccc3[nH]ncc3c2)c1 [Example 105]	100%	94%
O=S1(=O)CCCN1c1cccc(NCc2cccc3cn[nH]c23)c1 [Example 106]	100%	94%
COc1ccc(S(=O)(=O)Nc2cccc3cn[nH]c23)c(NS(=O)(=O)C(F)F)c1 [Example 107]	100%	96%
CC(O)CCN(C)S(=O)(=O)c1ccc2cn[nH]c2c1 (stereo not drawn) [Example 108]	100%	97%
Cc1ccc2[nH]nc(C(=O)N3CC[S+]([O-])C(C)(C)C3)c2c1 (stereo not drawn) [Example 109]	100%	97%
CC(CNC(=O)c1cccc2[nH]ncc12)CC1(C)OCCO1 (stereo not drawn) [Example 110]	100%	97%
O=C(NC1=NCCS1)c1n[nH]c2ccccc12 [Example 111]	95%	98%
Fc1cccnc1N1CCC(NCc2cccc3cn[nH]c23)C1 (stereo not drawn) [Example 112]	100%	98%
O=S(=O)(Nc1cccc2[nH]ncc12)N1CCCCC1 [Example 113]	100%	98%
O=C(O)CC1CSCCN1C(=O)c1cccc2cn[nH]c12 (stereo not drawn) [Example 114]	100%	98%
Cc1nccc(Nc2ccc3[nH]ncc3c2)n1 [Example 115]	96%	98%
O=C1NCCN1c1cccc(NCc2cccc3cn[nH]c23)c1 [Example 116]	96%	99%
CC1(C)CN(C(=O)c2n[nH]c3ccccc23)CCS1(=O)=O [Example 117]	100%	99%
O=S(=O)(Nc1ccc2cn[nH]c2c1)c1ccc(S(=O)(=O)N2CCCC2)cc1 [Example 118]	100%	99%
O=C(CC1CCCCCC1)c1n[nH]c2ccccc12 [Example 119]	100%	99%
C#CCOCCC(=O)Nc1n[nH]c2c(Cl)cccc12 [Example 120]	98%	100%
COc1ccc(OCCC(=O)Nc2n[nH]c3ccccc23)cc1 [Example 121]	100%	100%
CCNC(=O)c1cccc(NC(=O)c2n[nH]c3ccccc23)c1 [Example 122]	95%	100%
O=C(c1n[nH]c2ccccc12)N1CCSCC1 [Example 123]	92%	100%
O=C1NC(=S)S/C1=C\c1cccc2cn[nH]c12 [Example 124]	99%	100%
